The source of these data is patent US9663789B2, “PME-1 as a biomarker to predict and diagnose endometrial and breast cancer and gene silencing of PME-1 to inhibit epithelial to mesenchymal transition” (MEDICAL DIAGNOSTIC LABORATORIES, LLC, priority 2013, dated 2017).

What all share (type): cell-based, human
One data set has as its system PP2A. As to the kind of experiment: PP2A phosphatase assay on RL95-2 whole cell lysates. As to conditions: RL95-2 cells, vs control (non-targeting). From the text:
Because PME-1 is a known inhibitor of PP2A, we confirmed in this study that depletion of PME-1 by siRNA led to an increase in PP2A activity in cells. To do so, we treated RL95-2 cells with either non-targeting siRNA (Control) or siRNA targeted against PPME1 (e.g., SEQ ID NO: 5 and SEQ ID NO: 6). PP2A activity was monitored using a phosphatase assay (R&D Systems Duo IC Set phosphatase assay kit). In the phosphatase assay, we used […] of whole cell extract and followed the manufacturer's recommendations.
Whole cell lysates were used with the DuoSet IC PP2A Phosphatase Assay Kit (R&D Systems). Procedure was carried out as per kit instructions with 500 μg protein and the absorbance was measured at 620 nm. The assay was repeated twice with similar results.

For the next data set, the system named is RL95-2 cells. The data set can be described thus: Immunofluorescence of mitotic cells (phosphorylated histone H3 Ser10). As to conditions: RL95-2, compared to control cells. The protocol:
Endometrial cancer cells were stained for phosphorylated histone H3 on serine 10, a marker of mitotic cells, followed by counterstaining with DAPI (FIG. 12) to identify all cells.
For analysis of patient samples, tissues were blocked for 2 hours with 10% FBS in TBST for at RT, incubated with each primary antibody (together) overnight at 4° C., washed three times for 15 min in TBST, incubated with each secondary fluorescent antibody (together) for 1 hr at RT, washed again as above, stained with DAPI and mounted with cover-slips using vectashield mounting media (Vector Labs). Primary antibodies used were for PME-1 (Santa Cruz), E-cadherin (Millipore), and vimentin (Genscript). 1×10^3RL95-2 cells were plated on a chamber slide and were incubated overnight at 37° C. Slides were fixed with 4% paraformaldehyde (PFA) on ice for two hours. The cells were incubated with the primary antibody to Histone 3 (pH3) phosphorylated at Ser10 (1:200, Cell Signaling Technologies) overnight and developed with the secondary anti-rabbit Alexa-Fluor 555 antibody (Cell Signaling Technologies). DAPI was used as a nuclear counter-stain (Sigma Aldrich). Images were taken with the Nikon Eclipse TE2000 at 20×.

The subject of the next data set is ERK. The data set can be described thus: Western analysis of phospho-ERK in RL95-2 cells. As to conditions: RL95-2, compared to control cells. How it is done: (§1) 15 μg of protein was used for western analysis. PME-1 antibody (Santa Cruz) and COXIV (Cell Signaling Technologies) were used for detection of proteins and the blots were developed using chemiluminescence (Pierce ECL Western Blotting Substrate—Thermo Scientific) on the GE ImageQuant LAS 4000. For analysis of Akt, ERK, and β-catenin signaling in tissue culture, western analyses were completed as follows. RL95-2 cells stably infected with lentivirus expressing constructs were selected with puromycin (Invivogen). The cells were incubated with either 50 μM Akt inhibitor (LY 294002, Cell Signaling Technologies) or 40 μM ERK inhibitor (V0126, Cell Signaling Technologies) for 1-2 hours at 37° C. 1.5× Laemelli buffer (0.5 M Tris pH6.8, […], 10% sodium dodecyl sulfate, 100 mM EDTA) was used to prepare cell lysates. 20 μg of protein was used for western analysis. Primary antibodies used were: P-Akt (Ser473), P-Akt (Thr308), pan-Akt, P-ERK (Thr202/204), total ERK (Cell Signaling Technologies), PME-1 (Santa Cruz), phospho-β-catenin (Ser45, Cell Signaling Technologies), phospho-β-catenin (Ser33/37/Thr41, Cell Signaling Technologies), β-catenin (Abcam), DcR2 (Abcam), and GAPDH (Abcam). All experiments were repeated several times with similar results.

For the next data set, the system named is Akt. As to the kind of experiment: Western analysis of phospho-Akt in RL95-2 cells. As to conditions: RL95-2, PME-1 knocked down. The protocol: We observed a similar trend for the Akt signaling pathway. There was an increase in phosphorylation of Akt on threonine 308 (T308) when PME-1 was over-expressed compared to control. […] PME-1 over-expression specifically increases the phosphorylation of Akt on T308, but not serine 473 (S473).
as §1, with “Primary antibodies used were: P-Akt (Ser473), P-Akt (Thr308), pan-Akt, P-ERK (Thr202/204), total ERK (Cell Signaling Technologies), PME-1 (Santa Cruz), phospho-β-catenin (Ser45, Cell Signaling Technologies), phospho-β-catenin (Ser33/37/Thr41, Cell Signaling Technologies), β-catenin (Abcam), DcR2 (Abcam), and GAPDH (Abcam). All experiments were repeated several times with similar results.” left out

The test system of a further data set is SFRP1. As to the kind of experiment: qRT-PCR of SFRP1 expression in RL95-2 cells. The note with it: RL95-2, qRT-PCR normalized to 18S. How it is done:
(§2) Using RL95-2 endometrial cancer cells, we overexpressed PME-1 (FIG. 21A) or depleted PME-1 with shRNA targeted to PME-1 (SEQ ID NO: 2) (FIG. 21B) and confirmed that PME-1 was appropriately expressed.
(§3) Total RNA was extracted with Qiagen RNAEasy kit from RL95-2 cells. cDNA was synthesized using 500 ng-1 μg of RNA and SuperScript VILO c-DNA mix (Life Technologies). Taqman probes and PCR-mix were purchased from Life Technologies. All samples were run in triplicates. Results are representative of three independent experiments in which genes of interest were normalized to the house-keeping gene, 18S or GAPDH, where fold-change was calculated using the ddCt method.

A further data set concerns WNT3. As to the kind of experiment: qRT-PCR of WNT3 expression in RL95-2 cells. The note with it: RL95-2, qRT-PCR normalized to 18S. How it is done: as §2, §3
For orientation: Quantitative PCR measures a nucleic acid by following its amplification.

The test system of another data set is ECC-1 cells. As to the kind of experiment: Foci formation assay, ECC-1 cells. As to conditions: ECC-1 stable clones, with empty FLAG, PP2A, PP4 or PP6 over-expression, 10 days, vs shSCR. The protocol: FIG. 24 depicts results from a study in which stable clones of ECC-1 cells expressing non-targeting scrambled shRNA (shSCR, black bars) or shPPME-1 (white bars) (SEQ ID NO: 2) and were then transfected with FLAG empty vector, FLAG-PPP2CA, FLAG-PPP4C, or FLAG-PPP6C. Cells (3,000) were plated and were allowed to grow for 10 days. Colonies were then stained with crystal violet and counted. The control cells expressing shSCR and transfected with empty FLAG vector were normalized to 100% foci formation. […] Averages of 6 experiments are plotted and statistical significance was calculated with the Student's T test, where *p<0.05, **p<0.01, ***p<0.001.
We performed a foci formation analysis by transfecting: (i) empty FLAG vector, (ii) FLAG-PPP2CA, (iii) FLAG-PPP4C, or (iv) FLAG-PPP6C into ECC-1 cells that stably expressed either (i) shSCR (non-targeting shRNA, black bars) or (ii) shPPME1 (depletes PME-1 levels, white bars) (FIG. 24).
1,000 cells were plated in a six well tissue culture dish in selection media (to include 5 μg/ml puromycin) (InvivoGen). Cells were allowed to adhere and grow in a 5% CO2, 37° C. incubator for 10 to 14 days. Media was replaced every fourth day. Cells were stained with 1% crystal violet (Sigma Aldrich) for five minutes and rinsed with PBS. Colonies were counted and data is presented as the percentage of change compared to the control. […]

Entries after “also recorded” stand apart in the source; their conditions may differ.

Take “shRNA (SEQ ID NO: 2): lentiviral shRNA against PPME1, target sequence SEQ ID NO: 2 GCAGCGATTATTAGTAGAGTT, bp 289-309; hairpin SEQ ID NO: 8 (CCGGGCAGCGATTATTAGTAGAGTTCTCGAGAACTCTACTAATAATCGCTGCTTTTT; listed as Homo sapiens)”: the “increase in PP2A phosphatase activity” value with PP2A stood at 30 fold. Besides, the “decreased proliferation (phospho-histone H3 positive cells)” value in the data set on RL95-2 cells is ~30%. In addition, the “phospho-ERK (Western)” value in the data set with ERK is “decrease in phospho-ERK”. Moreover, in the data set on Akt, the “phosphorylation of Akt (Western)” value is reported as “decrease in phosphorylation of Akt”. Also, the SFRP1 expression entry in the data set with SFRP1 was “significantly increased; also recorded: significant increase in SFRP1 expression”. The WNT3 expression result with WNT3 is reported as “significantly decreased”. For the same substance, the foci formation entry in the data set with ECC-1 cells (listed as shPPME1 (SEQ ID NO: 2)) is “significant decrease in foci formation”; in the data set with ECC-1 cells (listed as shPPME-1 (SEQ ID NO: 2)), “significant decrease in foci formed”.
